In ChEMBL document CHEMBL1944508, “Identification of triazolopyridazinones as potent p38α inhibitors” (Bioorg Med Chem Lett, 2012):

Tests used:
Format in all cases: ADME, organism-based
[1] = Clearance in rat; conditions: in vivo
[2] = Half life in Sprague-Dawley rat at 2 mg/kg, iv; set-up: dose 2 mg/kg, route intravenous; conditions: in vivo
[3] = AUC (0 to infinity) in Sprague-Dawley rat at 2 mg/kg, po; set-up: time infinity, dose 2 mg/kg, route oral; conditions: plasma
[4] = Clearance in Sprague-Dawley rat at 2 mg/kg, iv; set-up: dose 2 mg/kg, route intravenous; conditions: in vivo
[5] = Oral bioavailability in Sprague-Dawley rat at 2 mg/kg; conditions: in vivo
[6] = Volume of distribution at steady state in Sprague-Dawley rat at 2 mg/kg, iv; set-up: dose 2 mg/kg, route intravenous; conditions: in vivo, read-out: Vdss

Cc1ccc(C(=O)NC2CC2)cc1-c1cc2cnn(-c3c(F)cccc3F)c2n(C)c1=O
clearance [1]: 3.67 mL/min/kg

Cc1ccc(C(=O)NC2CC2)cc1-c1ccn2c(-c3c(F)cccc3F)nnc2c1
clearance [1]: 6.17 mL/min/kg

Cc1c(F)cc(C(=O)NC2CC2)cc1-c1cc2nnc(-c3c(F)cccc3Cl)n2n(C)c1=O
half-life [2]: 204 min | AUC(0-inf) [3]: 3190 ng·h/mL | clearance [4]: 8.77 mL/min/kg | bioavailability [5]: 83% | Vd [6]: 2.42 L/kg

CCn1c(=O)c(-c2cc(C(=O)NC3CC3)ccc2C)cc2nnc(-c3c(F)cccc3Cl)n21
half-life [2]: 166 min | AUC(0-inf) [3]: 1420 ng·h/mL | clearance [4]: 13.1 mL/min/kg | bioavailability [5]: 55% | Vd [6]: 2.54 L/kg

CCn1c(=O)c(-c2cc(C(=O)NC3CC3)cc(F)c2C)cc2nnc(-c3c(F)cccc3Cl)n21
half-life [2]: 166 min | AUC(0-inf) [3]: 1370 ng·h/mL | clearance [4]: 11.4 mL/min/kg | bioavailability [5]: 42% | Vd [6]: 2.7 L/kg
